Legend:
Assay in all cases: DGHM suspension test, microbicidal activity
Type in all cases: cell-based
[1] = tested on: Staphylococcus aureus ATCC 6538
Protocol: (§1) The microbicidal activity of the quanterary carboxylic acid alkanolamine ester salts used in accordance with the invention was tested against the following selected test germs:
(§2) The effectiveness of the compound to be tested was determined by the suspension test in accordance with the guidelines of the Deutsche Gesellschaft for Hygiene and Mikrobiologie (DGHM). Test solutions containing quatemary carboxylic acid alkanolamine ester salts in the quantities shown in the Tables of 50, 100, 200, 400 and 800 mg/l were prepared using water with a hardness of 17° dH and optionally isopropanol.
(§3) At room temperatures, quantities of 0.1 ml test germ suspension were pipetted into test tubes containing 10 ml of the test solutions described above and mixed. After various contact times of 5, 15, 30 and 60 minutes, 1 ml of material was taken from the test tubes by pipette and transferred to 9 ml inactivator solution (inactivators: 3.0% Tween, 0.3% lecithin, 0.1% histidine). After in activation for at least 5 and at most 30 minutes, the living germ count was determined by plating out onto casein peptone-soybean flour peptone (CaSo)-agar plates. Using a spiral plater, the inactivating mixture was directly plated out onto CaSo-agar. The samples were incubated for 24 to 72 hours at 37° C. and macroscopically evaluated for growth. The destruction time or the residual germ count was determined in this way. The germ count of an unchallenged water control is related to the germ count of the inactivated test solution taking the dilution into account. The higher the value, the better the microbicidal effect. The symbol < means that the logarithmic reductuon factor is below the indicated value or, in the case of the symbol >, above the indicated value. The abbreviation CU stands for “concentration used”.

[2] = tested on: Candida albicans ATCC 10231
Protocol: as §1, §2, §3

[3] = tested on: Pseudomonas aeruginosa ATCC 15442
Protocol: as §1, §2, §3

[4] = CU 50 mg/l, contact time 5 mins.
[5] = CU 50 mg/l, contact time 15 mins.
[6] = CU 50 mg/l, contact time 30 mins.
[7] = CU 50 mg/l, contact time 60 mins.
[8] = CU 100 mg/l, contact time 5 mins.
[9] = CU 100 mg/l, contact time 15 mins.
[10] = CU 100 mg/l, contact time 30 mins.
[11] = CU 100 mg/l, contact time 60 mins.
[12] = CU 200 mg/l, contact time 5 mins.
[13] = CU 200 mg/l, contact time 15 mins.
[14] = CU 200 mg/l, contact time 30 mins.
[15] = CU 200 mg/l, contact time 60 mins.
[16] = CU 400 mg/l, contact time 5 mins.
[17] = CU 400 mg/l, contact time 15 mins.
[18] = CU 400 mg/l, contact time 30 mins.
[19] = CU 400 mg/l, contact time 60 mins.
[20] = CU 800 mg/l, contact time 5 mins.
[21] = CU 800 mg/l, contact time 15 mins.
[22] = CU 800 mg/l, contact time 30 mins.
[23] = CU 800 mg/l, contact time 60 mins.

## CCCCCCCC(=O)OCC[N+](C)(CCOC(=O)CCCCCCC)CCOC(=O)CCCCCCC.COS(=O)(=O)[O-] [Example 2, methyl triethanolammonium tricaprylic acid ester methosulfate]
[1]; [4]
  logarithmic reduction factor: 3.21
[1]; [5]
  logarithmic reduction factor: >5.38
[1]; [6]
  logarithmic reduction factor: >5.50
[1]; [7]
  logarithmic reduction factor: >5.41
[1]; [8]
  logarithmic reduction factor: 3.54
[1]; [9]
  logarithmic reduction factor: >5.38
[1]; [10]
  logarithmic reduction factor: >5.50
[1]; [11]
  logarithmic reduction factor: >5.41
[1]; [12]
  logarithmic reduction factor: 4.32
[1]; [13]
  logarithmic reduction factor: >5.38
[1]; [14]
  logarithmic reduction factor: >5.50
[1]; [15]
  logarithmic reduction factor: >5.41
[1]; [16]
  logarithmic reduction factor: >5.56
[1]; [17]
  logarithmic reduction factor: >5.38
[1]; [18]
  logarithmic reduction factor: >5.50
[1]; [19]
  logarithmic reduction factor: >5.41
[1]; [20]
  logarithmic reduction factor: >5.56
[1]; [21]
  logarithmic reduction factor: >5.38
[1]; [22]
  logarithmic reduction factor: >5.50
[1]; [23]
  logarithmic reduction factor: >5.41
[2]; [4]
  logarithmic reduction factor: 3.44
[2]; [5]
  logarithmic reduction factor: >4.71
[2]; [6]
  logarithmic reduction factor: >4.82
[2]; [7]
  logarithmic reduction factor: >4.68
[2]; [8]
  logarithmic reduction factor: >4.73
[2]; [9]
  logarithmic reduction factor: >4.71
[2]; [10]
  logarithmic reduction factor: >4.82
[2]; [11]
  logarithmic reduction factor: >4.68
[2]; [12]
  logarithmic reduction factor: >4.73
[2]; [13]
  logarithmic reduction factor: >4.71
[2]; [14]
  logarithmic reduction factor: >4.82
[2]; [15]
  logarithmic reduction factor: >4.68
[2]; [16]
  logarithmic reduction factor: >4.73
[2]; [17]
  logarithmic reduction factor: >4.71
[2]; [18]
  logarithmic reduction factor: >4.82
[2]; [19]
  logarithmic reduction factor: >4.68
[2]; [20]
  logarithmic reduction factor: >4.73
[2]; [21]
  logarithmic reduction factor: >4.71
[2]; [22]
  logarithmic reduction factor: <4.82
[2]; [23]
  logarithmic reduction factor: >4.68
[3]; [4]
  logarithmic reduction factor: <1.38
[3]; [5]
  logarithmic reduction factor: <1.70
[3]; [6]
  logarithmic reduction factor: 3.31
[3]; [7]
  logarithmic reduction factor: 3.98
[3]; [8]
  logarithmic reduction factor: <1.38
[3]; [9]
  logarithmic reduction factor: 3.25
[3]; [10]
  logarithmic reduction factor: 3.75
[3]; [11]
  logarithmic reduction factor: 4.49
[3]; [12]
  logarithmic reduction factor: 1.38
[3]; [13]
  logarithmic reduction factor: 3.95
[3]; [14]
  logarithmic reduction factor: 4.40
[3]; [15]
  logarithmic reduction factor: >5.59
[3]; [16]
  logarithmic reduction factor: 4.08
[3]; [17]
  logarithmic reduction factor: >5.70
[3]; [18]
  logarithmic reduction factor: >5.68
[3]; [19]
  logarithmic reduction factor: >5.59
[3]; [20]
  logarithmic reduction factor: 4.42
[3]; [21]
  logarithmic reduction factor: >5.70
[3]; [22]
  logarithmic reduction factor: >5.68
[3]; [23]
  logarithmic reduction factor: >5.59

## CCCCCCCCC(=O)OCC[N+](C)(C)CCOC(=O)CCCCCCCC.COS(=O)(=O)[O-] [Example 3, dimethyl diethanolammonium dipelargonic acid ester methosulfate]
[1]; [4]
  logarithmic reduction factor: <1.31
[1]; [5]
  logarithmic reduction factor: 2.31
[1]; [6]
  logarithmic reduction factor: 3.01
[1]; [7]
  logarithmic reduction factor: 4.85
[1]; [8]
  logarithmic reduction factor: <1.31
[1]; [9]
  logarithmic reduction factor: 3.67
[1]; [10]
  logarithmic reduction factor: >5.19
[1]; [11]
  logarithmic reduction factor: >5.55
[1]; [12]
  logarithmic reduction factor: 2.05
[1]; [13]
  logarithmic reduction factor: >5.74
[1]; [14]
  logarithmic reduction factor: >5.19
[1]; [15]
  logarithmic reduction factor: >5.55
[1]; [16]
  logarithmic reduction factor: 3.25
[1]; [17]
  logarithmic reduction factor: >5.74
[1]; [18]
  logarithmic reduction factor: >5.19
[1]; [19]
  logarithmic reduction factor: >5.55
[1]; [20]
  logarithmic reduction factor: 3.78
[1]; [21]
  logarithmic reduction factor: >5.74
[1]; [22]
  logarithmic reduction factor: >5.19
[1]; [23]
  logarithmic reduction factor: >5.55
[2]; [4]
  logarithmic reduction factor: 2.86
[2]; [5]
  logarithmic reduction factor: >4.63
[2]; [6]
  logarithmic reduction factor: >4.66
[2]; [7]
  logarithmic reduction factor: >4.67
[2]; [8]
  logarithmic reduction factor: >4.63
[2]; [9]
  logarithmic reduction factor: >4.63
[2]; [10]
  logarithmic reduction factor: >4.66
[2]; [11]
  logarithmic reduction factor: >4.67
[2]; [12]
  logarithmic reduction factor: >4.63
[2]; [13]
  logarithmic reduction factor: >4.63
[2]; [14]
  logarithmic reduction factor: >4.66
[2]; [15]
  logarithmic reduction factor: >4.67
[2]; [16]
  logarithmic reduction factor: >4.63
[2]; [17]
  logarithmic reduction factor: >4.63
[2]; [18]
  logarithmic reduction factor: >4.66
[2]; [19]
  logarithmic reduction factor: >4.67
[2]; [20]
  logarithmic reduction factor: >4.63
[2]; [21]
  logarithmic reduction factor: >4.63
[2]; [22]
  logarithmic reduction factor: >4.66
[2]; [23]
  logarithmic reduction factor: >4.67
[3]; [4]
  logarithmic reduction factor: <1.59
[3]; [5]
  logarithmic reduction factor: 2.99
[3]; [6]
  logarithmic reduction factor: 3.58
[3]; [7]
  logarithmic reduction factor: 3.77
[3]; [8]
  logarithmic reduction factor: 4.36
[3]; [9]
  logarithmic reduction factor: >5.58
[3]; [10]
  logarithmic reduction factor: >5.67
[3]; [11]
  logarithmic reduction factor: >5.53
[3]; [12]
  logarithmic reduction factor: >5.59
[3]; [13]
  logarithmic reduction factor: >5.58
[3]; [14]
  logarithmic reduction factor: >5.67
[3]; [15]
  logarithmic reduction factor: >5.53
[3]; [16]
  logarithmic reduction factor: >5.59
[3]; [17]
  logarithmic reduction factor: >5.58
[3]; [18]
  logarithmic reduction factor: >5.67
[3]; [19]
  logarithmic reduction factor: >5.53
[3]; [20]
  logarithmic reduction factor: >5.59
[3]; [21]
  logarithmic reduction factor: >5.58
[3]; [22]
  logarithmic reduction factor: >5.67
[3]; [23]
  logarithmic reduction factor: >5.53

Reference: patent US6420330B1, “Use of quaternary carboxylic acid alkanolamine ester salts as microbicide agents” (Cognis Deutschland GmbH, priority 1997, dated 2002)
